Consider 20 compounds from US20080182874A1, “Novel Compounds” (priority 2004, published 2008).

The structures appear in SMILES notation. Where two headings read alike, the source gives them in different places.

In data set [1] the target is T1, P2X7 receptor (Homo sapiens, UniProt Q99572).
T1 construct: 200 μl of a suspension of THP-1 cells (2.5×10^6 cells/ml) containing 10^−4M ethidium bromide; endogenous in cells; host or cells: THP-1 cells
T1 sequence (Q99572 1-595): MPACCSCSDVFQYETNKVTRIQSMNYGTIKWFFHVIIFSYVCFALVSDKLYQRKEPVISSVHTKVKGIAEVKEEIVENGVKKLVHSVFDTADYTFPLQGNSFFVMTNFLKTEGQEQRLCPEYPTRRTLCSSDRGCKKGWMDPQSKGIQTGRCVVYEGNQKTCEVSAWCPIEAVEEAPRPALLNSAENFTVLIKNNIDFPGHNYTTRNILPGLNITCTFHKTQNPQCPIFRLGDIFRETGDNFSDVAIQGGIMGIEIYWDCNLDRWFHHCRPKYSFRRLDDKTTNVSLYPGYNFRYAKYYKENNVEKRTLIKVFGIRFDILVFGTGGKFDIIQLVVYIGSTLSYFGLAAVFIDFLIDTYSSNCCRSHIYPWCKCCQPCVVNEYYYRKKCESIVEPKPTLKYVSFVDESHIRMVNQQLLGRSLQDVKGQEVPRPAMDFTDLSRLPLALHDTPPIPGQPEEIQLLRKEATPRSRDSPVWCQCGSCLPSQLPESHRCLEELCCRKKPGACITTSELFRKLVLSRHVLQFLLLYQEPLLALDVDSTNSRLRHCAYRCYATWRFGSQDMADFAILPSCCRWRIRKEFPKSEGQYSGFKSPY
As to the kind of experiment: bbATP-induced ethidium bromide uptake in THP-1 cells (P2X7 antagonist activity). The format is cell-based. From the text:
Certain compounds such as benzoylbenzoyl adenosine triphosphate (bbATP) are known to be agonists of the P2X7 receptor, effecting the formation of pores in the plasma membrane (Drug Development Research (1996), 37(3), p. 126). Consequently, when the receptor is activated using bbATP in the presence of ethidium bromide (a fluorescent DNA probe), an increase in the fluorescence of intracellular DNA-bound ethidium bromide is observed. The increase in fluorescence can be used as a measure of P2X7 receptor activation and therefore to quantify the effect of a compound on the P2X7 receptor.
In this manner, each of the title compounds of the Examples was tested for antagonist activity at the P2X7 receptor. […] The plate was covered with a plastics sheet and incubated at 37° C. for one hour. The plate was then read in a Perkin-Elmer fluorescent plate reader, excitation 520 nm, emission 595 nm, slit widths: Ex 15 nm, Em 20 nm. For the purposes of comparison, bbATP (a P2X7 receptor agonist) and pyridoxal 5-phosphate (a P2X7 receptor antagonist) were used separately in the test as controls.

On to `O=C(CC12CC3CC(CC(C3)C1)C2)Nc1c(Cl)ccc2nc(N3CCC(C(=O)O)CC3)ccc12` [Example 1, 1-[6-Chloro-5-[(tricyclo[3.3.1.1^3,7]dec-1-ylacetyl)amino]-2-quinolinyl]-4-piperidinecarboxylic acid], for which the melting point (commonly the temperature, or range, at which the solid turns liquid) lay in the range of 240 to 241 °C.

Regarding `O=C(NCC12CC3CC(CC(C3)C1)C2)c1c(Cl)ccc2nc(N3CCC[C@@H]3C(=O)O)ccc12` [Example 2, 1-[6-Chloro-5-[[(tricyclo[3.3.1.1^3,7]dec-1-ylmethyl)amino]carbonyl]-2-quinolinyl]-D-proline], the melting point lay in the range of 157 to 160 °C.

In turn, `O=C(NCC12CC3CC(CC(C3)C1)C2)c1c(Cl)ccc2nc(N3CCC[C@@H](C(=O)O)C3)ccc12` [Example 3, 1-[6-Chloro-5-[[(tricyclo[3.3.1.1^3,7]dec-1-ylmethyl)amino]carbonyl]-2-quinolinyl]-(3R)-3-piperidinecarboxylic acid] registered a melting point of 257 to 262 °C. Further, the IC50 in data set [1] was 79.4 nM.

Take `O=C(NCC12CC3CC(CC(C3)C1)C2)c1c(Cl)ccc2nc(N3CCC(n4cn[nH]c4=O)CC3)ccc12` [Example 4, 6-Chloro-2-[4-(1,5-dihydro-5-oxo-4H-1,2,4-triazol-4-yl)-1-piperidinyl]-N-(tricyclo[3.3.1.1^3,7]dec-1-ylmethyl)-5-quinolinecarboxamide]: the melting point lay within 294 to 295 °C.

The compound `O=C(O)CN1CCN(c2ccc3c(C(=O)NCC45CC6CC(CC(C6)C4)C5)c(Cl)ccc3n2)CC1` [Example 5, 4-[6-Chloro-5-[[(tricyclo[3.3.1.1^3,7]dec-1-ylmethyl)amino]carbonyl]-2-quinolinyl]-1-piperazineacetic acid] returned a melting point of 179 to 183 °C.

Compound `O=C(NCC12CC3CC(CC(C3)C1)C2)c1c(Cl)ccc2nc(N3CC[C@H](NCCc4nnn[nH]4)C3)ccc12` [Example 6, 6-Chloro-2-[(3S)-3-[[2-(2H-tetrazol-5-yl)ethyl]amino]-1-pyrrolidinyl]-N-(tricyclo[3.3.1.1^3,7]dec-1-ylmethyl)-5-quinolinecarboxamide] showed a melting point of 174 to 177 °C.

`O=C(NCC12CC3CC(CC(C3)C1)C2)c1c(Cl)ccc2nc(N3CCC(C(=O)O)CC3)ccc12` [Example 7, 1-[6-Chloro-5-[[(tricyclo[3.3.1.1^3,7]dec-1-ylmethyl)amino]carbonyl]-2-quinolinyl]-4-piperidinecarboxylic acid] displayed a melting point of 231 to 235 °C.

Consider `O=C(O)CC1CCN(c2ccc3c(C(=O)NCC45CC6CC(CC(C6)C4)C5)c(Cl)ccc3n2)CC1` [Example 8, 1-[6-Chloro-5-[[(tricyclo[3.3.1.1^3,7]dec-1-ylmethyl)amino]carbonyl]-2-quinolinyl]-4-piperidineacetic acid], for which the melting point lay within 212 to 214 °C.

As for `O=C(NCC12CC3CC(CC(C3)C1)C2)c1c(Cl)ccc2nc(CCCCc3nnn[nH]3)ccc12` [Example 9, 6-Chloro-2-[4-(2H-tetrazol-5-yl)butyl]-N-(tricyclo[3.3.1.1^3,7]dec-1-ylmethyl)-5-quinolinecarboxamide], the melting point is 221 °C.

The compound `O=C(O)CCN[C@H]1CCCN(c2ccc3c(C(=O)NCC45CC6CC(CC(C6)C4)C5)c(Cl)ccc3n2)C1` [Example 12, N-[(3S)-1-[6-Chloro-5-[[(tricyclo[3.3.1.1^3,7]dec-1-ylmethyl)amino]carbonyl]-2-quinolinyl]-3-piperidinyl]-β-alanine] came in with a melting point of 176 to 189 °C. In data set [1], this compound had an IC50 of 15.8 nM.

In the case of `O=C(NCC12CC3CC(CC(C3)C1)C2)c1c(Cl)ccc2nc(N3CCC(O)(C(=O)O)CC3)ccc12` [Example 17, 1-[6-Chloro-5-[[(tricyclo[3.3.1.1^3,7]dec-1-ylmethyl)amino]carbonyl]-2-quinolinyl]-4-hydroxy-4-piperidinecarboxylic acid], the melting point is 200 to 204 °C.

Consider `O=C(NCC12CC3CC(CC(C3)C1)C2)c1c(Cl)ccc2nc(N3CCC(C(=O)O)(c4ccccc4)CC3)ccc12` [Example 18, 1-[6-Chloro-5-[[(tricyclo[3.3.1.1^3,7]dec-1-ylmethyl)amino]carbonyl]-2-quinolinyl]-4-phenyl-4-piperidinecarboxylic acid], for which the melting point lay within 235 to 237 °C.

For `O=C(NCC12CC3CC(CC(C3)C1)C2)c1c(Cl)ccc2nc(N3C[C@@H]4[C@H](C3)[C@H]4C(=O)O)ccc12` [Example 19, (1R,5S)-3-[6-Chloro-5-[[(tricyclo[3.3.1.1^3,7]dec-1-ylmethyl)amino]carbonyl]-2-quinolinyl]-3-azabicyclo[3.1.0]hexane-6-carboxylic acid], the melting point fell in the range of 175 to 180 °C.

Compound `CS(=O)(=O)NC(=O)C1CCN(c2ccc3c(C(=O)NCC45CC6CC(CC(C6)C4)C5)c(Cl)ccc3n2)CC1` [Example 20, 6-Chloro-2-[4-[[(methylsulfonyl)amino]carbonyl]-1-piperidinyl]-N-(tricyclo[3.3.1.1^3,7]dec-1-ylmethyl)-5-quinolinecarboxamide] showed a melting point of 170 to 173 °C.

`O=C(NCC12CC3CC(CC(C3)C1)C2)c1c(Cl)ccc2nc(N3CCC(C(=O)NO)CC3)ccc12` [Example 21, 6-chloro-2-[4-[(hydroxyamino)carbonyl]-1-piperidinyl]-N-(tricyclo[3.3.1.1^3,7]dec-1-ylmethyl)-5-quinolinecarboxamide]: the melting point lay in the range of 189 to 196 °C.

For the compound `O=C(O)c1ccccc1-c1ccc2c(C(=O)NCC34CC5CC(CC(C5)C3)C4)c(Cl)ccc2n1` [Example 23, 2-[6-Chloro-5-[[(tricyclo[3.3.1.1^3,7]dec-1-ylmethyl)amino]carbonyl]-2-quinolinyl]-benzoic acid], the melting point is 156 to 158 °C.

Turning to `O=C(O)c1cccc(-c2ccc3c(C(=O)NCC45CC6CC(CC(C6)C4)C5)c(Cl)ccc3n2)c1` [Example 24, 3-[6-Chloro-5-[[(tricyclo[3.3.1.1^3,7]dec-1-ylmethyl)amino]carbonyl]-2-quinolinyl]-benzoic acid], the IC50 in data set [1] (THP-1 cells, 10^-5M bbATP agonist, ethidium bromide fluorescence, 37° C. for one hour, negative logarithm of concentration reducing bbATP agonist activity by 50%, read-out: pIC50 (converted)) is 63.1 nM.

Take `O=C(O)c1ccc(-c2ccc3c(C(=O)NCC45CC6CC(CC(C6)C4)C5)c(Cl)ccc3n2)cc1` [Example 25, 4-[6-Chloro-5-[[(tricyclo[3.3.1.1^3,7]dec-1-ylmethyl)amino]carbonyl]-2-quinolinyl]-benzoic acid]: the melting point lay in the range of 316 to 317 °C.

`O=C(O)CCNc1ccc2c(C(=O)NCC34CC5CC(CC(C5)C3)C4)c(Cl)ccc2n1` [Example 27, N-[6-Chloro-5-[[(tricyclo[3.3.1.1^3,7]dec-1-ylmethyl)amino]carbonyl]-2-quinolinyl]-β-alanine] came in with a melting point of 251 to 252 °C.

As to `O=C(O)c1cncc(-c2ccc3c(C(=O)NCC45CC6CC(CC(C6)C4)C5)c(Cl)ccc3n2)c1` [Example 28, 5-[6-Chloro-5-[[(tricyclo[3.3.1.1^3,7]dec-1-ylmethyl)amino]carbonyl]-2-quinolinyl]-3-pyridinecarboxylic acid], the melting point was 247 °C.
